19 compounds from patent USRE39197E1, “Cell adhesion-inhibiting antiinflammatory and immune-suppressive compounds” (Abbott Laboratories, priority 1998, dated 2006) can be followed below.

In test [1] the test system is adhesion of JY-8 cells (expressing LFA-1) to immobilized ICAM-3. The experiment in a line: ICAM-3/JY-8 Cell Adhesion Assay. Format: cell-based, human. To be noted: 0.6 μM compound, JY-8 cells on immobilized ICAM-3/Ig; for inhibition at 0.6 µM: Homo sapiens. How it is done:
As such, it is expected that these compounds should block the interaction of LFA-1 with other CAM's. […] Compounds of the present invention may be evaluated for their ability to block the adhesion of JY-8 cells (a human EBV-transformed B cell line expressing LFA-1 on its surface) to immobilized ICAM-3, as follows:
ICAM-3/JY-8 Cell Adhesion Assay
For measurement of inhibitory activity in the cell-based adhesion assay, 96-well microtiter plates are were coated with 50 μL of recombinant ICAM-3/Ig (ICOS Corporation) at a concentration of 10 μg/mL in D-PBS w/o without Ca^++ or Mg^++ overnight at 4° C. The wells are were then washed twice with D-PBS, blocked by addition of 100 μL of D-PBS, 1% bovine serum albumin (BSA) by incubation for 1 hour at room temperature, and washed once with RPMI-1640/5% heat-inactivated fetal bovine serum (adhesion buffer). Dilutions of compounds to be assayed for ICAM-3/LFA-1 antagonistic activity are were prepared in adhesion buffer from 10 mM stock solutions in DMSO and 100 μL are were added to duplicate wells. JY-8 cells (a human EBV-transformed B cell line expressing LFA-1 on its surface; 100 μL at 0.75×10^6 cells/ml mL in adhesion buffer) are were then added to the wells. Microtiter plates are were incubated for 30 minutes at room temperature; the adherent cells are were then fixed with 50 μL of 14% glutaraldehyde/D-PBS and were incubated for an additional 90 minutes. The wells are were washed gently with dH2O; 50 μL of dH2O is was added, following followed by 50 μL of 1% crystal violet. After 5 minutes the plates are were washed 3× times with dH2O; 75 μL of dH2O and 225 μL of 95% EtOH are were added to each well to extract the crystal violet from the cells. Absorbance is was measured at […] in an ELISA plate reader. The percent inhibition of a candidate compound is was calculated using the following equation. [formula]

In test [2] the test system is adherence of JY-8 cells (expressing LFA-1) to immobilized ICAM-1. As to the kind of experiment: ICAM-1/JY-8 Cell Adhesion Assay. The format is cell-based, human. How it is done:
ICAM-1/JT-8 Cell Adhesion Assay
For measurment measurement of inhibotory inhibitory activity in the cell-based adhesion assay, 96-well microtiter plates are were coated with 70 μL of recombinat recombinant ICAM-1/Ig (ICOS Corporation) at a concentration of 5 μg/mL in D-PBS w/o without Ca^++ or Mg++ or Mg^++ overnight at 4° C. The wells are were then washed twice with D-PBS and blocked by addition of 200 μL of D-PBS, 5% fish skin gelatin by incubation for 1 hour at room temperature. […] The percent inhibition of a candidate compound at a given concentration is was calculated using the following equation: [formula] and these concentration/inhibition data are were used to generate does response curves, from which IC50 values are were derived.

The target of test [3] is T1, interaction between the integrin LFA-1 and its adhesion partner ICAM-1 (Homo sapiens, UniProt P20701).
T1 construct: Recombinant LFA-1 (100 μL of 0.7 μg/ml mL, ICOS Corporation) in D-PBS; purchased ICOS Corporation
The experiment in a line: ICAM-1/LFA-1 Biochemical Interaction Assay. The format is binding. To be noted: 4 μM compound; recombinant LFA-1, biotinylated ICAM-1/Ig. How it is done: Compounds that antagonize the interaction between ICAM-1 and LFA-1 can be identified, and their activities quantitated, using both biochemical and cell-based adhesion assays. A primary biochemical assay measures the ability of the compound in question to block the interaction between the integrin LFA-1 and its adhesion partner ICAM-1, as described below:
ICAM-1/LFA-1 Biochemical Interaction Assay
In the biochemical assay, 100 μL of anti-LFA-1 antibody (ICOS Corporation) at a concentration of 5 μg/ml mL in Dulbecco's phosphate-buffered saaline (D-PBS) is used to coat wells of a 96-well microtiter plate overnight at 4° C. The wells are were then washed twice with wash buffer (D-PBS w/o Ca^++ or Mg^++, 0.05% Tween 20) and blocked by addition of 200 μL of D-PBS, 5% fish skin gelatin. Recombinant LFA-1 (100 μL of 0.7 μg/ml mL, ICOS Corporation) in D-PBS is was then added to each well. Incubation continues continued for 1 hour at room temperature and the wells are were washed twice with wash buffer. Serial dilutions of compounds being assayed as ICAM-1/LFA-1 antagonists, were prepared as 10 mM stock solutions in dimethyl sulfoxide (DMSO), are were diluted in D-PBS, 2 mM MgCl2, 1% fish skin gelatin and 50 μL of each dilution was added to duplicate wells. This is was followed by the addition of 50 μL of 0.8 μg/ml mL biotinylated recombinant ICAM-1/Ig (ICOS Corporation) to the wells and the plates are were incubated at room temperature for 1 hour. The wells are were then washed twice with wash buffer and 100 μL of Europium-labeled Streptavidin (Wallac Oy) diluted 1:100 in Delfia assay buffer (Wallac Oy), are was then added to the wells. Incubation proceeds proceeded for 1 hour at room temperature. The wells are were washed eight times with wash buffer and 100 μL of enhancement solution (Wallac Oy, cat. No. 1244-105) are was added to each well. Incubation proceeds proceeded for 5 minutes with constant mixing. Time-resolved fluorimetry measurements are were made using the a Victor 1420 Multilabel Counter (Wallac Oy) and the percent inhibition of each candidate compound is was calculated using the following equation: [formula] where “background” refers to wells that are were not coated with anti-LFA-1 antibody.

The mark [4] stands for this setting: JY-8 cells on immobilized ICAM-1/Ig.
[5] abbreviates: Homo sapiens, JY-8, JY-8 cells on immobilized ICAM-1/Ig.

T1 sequence (P20701 26-1170): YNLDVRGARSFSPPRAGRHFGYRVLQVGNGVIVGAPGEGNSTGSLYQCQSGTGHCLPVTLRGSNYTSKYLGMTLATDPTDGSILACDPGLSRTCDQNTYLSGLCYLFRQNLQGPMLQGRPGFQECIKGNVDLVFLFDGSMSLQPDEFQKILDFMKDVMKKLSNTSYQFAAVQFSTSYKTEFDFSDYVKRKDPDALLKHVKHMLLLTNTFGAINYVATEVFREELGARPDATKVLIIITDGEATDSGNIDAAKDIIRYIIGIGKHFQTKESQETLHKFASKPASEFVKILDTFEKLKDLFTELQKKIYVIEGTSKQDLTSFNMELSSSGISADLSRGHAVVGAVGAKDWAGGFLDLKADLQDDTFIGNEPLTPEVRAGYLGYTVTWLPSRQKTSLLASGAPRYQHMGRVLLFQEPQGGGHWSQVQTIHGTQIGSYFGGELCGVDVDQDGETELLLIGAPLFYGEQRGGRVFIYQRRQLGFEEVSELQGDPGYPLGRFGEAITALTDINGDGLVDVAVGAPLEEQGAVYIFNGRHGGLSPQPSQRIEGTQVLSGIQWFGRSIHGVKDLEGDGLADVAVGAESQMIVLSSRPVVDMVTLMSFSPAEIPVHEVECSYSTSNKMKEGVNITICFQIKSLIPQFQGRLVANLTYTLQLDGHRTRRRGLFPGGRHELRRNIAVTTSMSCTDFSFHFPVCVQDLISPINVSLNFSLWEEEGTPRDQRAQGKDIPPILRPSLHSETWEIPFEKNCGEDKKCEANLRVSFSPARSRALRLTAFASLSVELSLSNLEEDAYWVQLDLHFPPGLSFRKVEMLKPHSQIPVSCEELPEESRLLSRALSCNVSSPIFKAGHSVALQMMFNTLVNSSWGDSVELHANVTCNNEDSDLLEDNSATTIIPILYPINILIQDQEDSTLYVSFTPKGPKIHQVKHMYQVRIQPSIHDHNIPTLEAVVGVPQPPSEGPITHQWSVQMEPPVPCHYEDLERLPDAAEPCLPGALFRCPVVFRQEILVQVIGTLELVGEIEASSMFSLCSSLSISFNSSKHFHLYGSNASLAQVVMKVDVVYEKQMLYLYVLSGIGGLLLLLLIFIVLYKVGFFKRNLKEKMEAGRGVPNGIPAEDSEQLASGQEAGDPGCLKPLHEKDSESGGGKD
T1 sequence (P05107 23-769 partner): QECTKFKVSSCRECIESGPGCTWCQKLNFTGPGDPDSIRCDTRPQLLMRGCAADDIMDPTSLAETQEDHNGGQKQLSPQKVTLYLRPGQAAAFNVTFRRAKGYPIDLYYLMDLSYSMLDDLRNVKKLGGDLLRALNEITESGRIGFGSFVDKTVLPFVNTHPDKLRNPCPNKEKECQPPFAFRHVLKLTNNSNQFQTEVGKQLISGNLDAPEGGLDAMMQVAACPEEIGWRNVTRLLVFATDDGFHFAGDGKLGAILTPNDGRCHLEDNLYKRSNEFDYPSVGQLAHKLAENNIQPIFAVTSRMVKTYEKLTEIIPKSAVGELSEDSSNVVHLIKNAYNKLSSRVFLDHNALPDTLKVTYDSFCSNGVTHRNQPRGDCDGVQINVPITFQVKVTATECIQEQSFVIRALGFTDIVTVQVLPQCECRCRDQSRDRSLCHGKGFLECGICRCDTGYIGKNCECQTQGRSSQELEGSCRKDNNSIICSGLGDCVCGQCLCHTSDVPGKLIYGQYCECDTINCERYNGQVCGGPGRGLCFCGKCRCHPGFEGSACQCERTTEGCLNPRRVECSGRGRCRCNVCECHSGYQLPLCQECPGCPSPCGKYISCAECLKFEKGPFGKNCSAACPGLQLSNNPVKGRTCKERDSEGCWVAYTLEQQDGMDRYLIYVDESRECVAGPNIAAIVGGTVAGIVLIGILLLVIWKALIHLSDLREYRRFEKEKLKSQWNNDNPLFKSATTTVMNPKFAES

As a reminder, the IC50 is the concentration at which inhibition is half-maximal. Low readings indicate inhibition by little substance, high ones a need for much substance. As for `O=C(/C=C/c1ccc(Sc2ccccc2Br)c(Cl)c1)N1CCC(O)CC1` [Example 18], in test [1], the “% inhibition @ 0.6 μM” value is 100%. In test [2] (setting [4]), this compound showed an IC50 of 130 nM. Moreover, in test [3], the “% inhibition @ 4 μM” value was found to be 86%.

As a reminder, the inhibition is the share of the control response that was lost under treatment. In the case of `CC(=O)N1CCN(C(=O)/C=C/c2ccc(Sc3ccccc3C)c([N+](=O)[O-])c2)CC1` [Example 45, (2-Methylphenyl)[2-nitro-4-(E-((4-acetylpiperazin-1-yl)carbonyl)ethenyl)phenyl]sulfide], the inhibition at 0.6 µM in test [1] was found to be 100%. In test [2] (setting [5]), this compound gave an IC50 of 50 nM. The inhibition at 4 µM in test [3] turned out to be 88%.

In the case of `CC(=O)N1CCN(C(=O)/C=C/c2ccc(Sc3ccccc3C=O)c([N+](=O)[O-])c2)CC1` [Example 60, (2-Formylphenyl)[2-nitro-4-(E-((4-acetylpiperazin-1-yl)carbonyl)ethenyl)phenyl]sulfide], the inhibition at 0.6 µM in test [1] came to 100%. In test [2] (Homo sapiens, JY-8 cells on immobilized ICAM-1/Ig), the IC50 was 30 nM. In addition, the inhibition at 4 µM in test [3] is 95%.

As to `O=C(/C=C/c1ccc(Sc2ccccc2CN2CCN(Cc3ccc4c(c3)OCO4)CC2)c(Cl)c1)N1CCOCC1` [Example 54, (2-(4-(1,3-Benzodioxolyl-5-methyl)piperazin-1-ylmethyl)phenyl)[2-chloro-4-(E-((1-morpholinyl)carbonyl)ethenyl)phenyl]sulfide], the “% inhibition @ 0.6 μM” value in test [1] amounted to 100%. This compound also showed an IC50 in test [2] (setting [4]) of 360 nM.

For the compound `CC(=O)N1CCN(C(=O)/C=C/c2ccc(Sc3ccccc3C)c(C(F)(F)F)c2)CC1` [Example 26], in test [1], the “% inhibition @ 0.6 μM” value is listed as 100%. In test [2] (setting [4]), this compound showed an IC50 of 110 nM. Further, the “% inhibition @ 4 μM” value in test [3] was 94%.

`CCc1ccccc1Sc1ccc(/C=C/C(=O)N2CCN(C(C)=O)CC2)cc1[N+](=O)[O-]` [Example 49, (2-Ethylphenyl)[2-nitro-4-(E-((4-acetylpiperazin-1-yl)carbonyl)ethenyl)phenyl]sulfide] came in with an inhibition at 0.6 µM in test [1] of 100%. Moreover, it took 20 nM to reach half-maximal inhibition in test [2] (setting [5]) (IC50). For the same compound, the inhibition at 4 µM in test [3] stood at 93%.

For `Cc1ccccc1Sc1ccc(/C=C/C(=O)N2CCOCC2)cc1C(F)(F)F` [Example 27, (2-Methylphenyl)[2-trifluoromethyl-4-(E-((1-morpholinyl)carbonyl)ethenyl)phenyl]sulfide], in test [1], the “% inhibition @ 0.6 μM” value was determined as 100%. Further, the IC50 in test [2] (setting [4]) is 160 nM. Also, in test [3], the “% inhibition @ 4 μM” value came out at 94%.

For `CC(=O)N1CCN(C(=O)/C=C/c2ccc(Sc3ccc(Br)cc3)c([N+](=O)[O-])c2)CC1` [Example 35, (4-Bromophenyl)[2-nitro-4-(E-((4-acetylpiperazin-1-yl)carbonyl)ethenyl)phenyl]sulfide], at 0.6 µM the inhibition in test [1] was 100%. Half-maximal inhibition in test [2] (setting [5]) (IC50) was put at 430 nM. The inhibition at 4 µM in test [3] stood at 89%.

For the compound `CC(=O)N1CCN(C(=O)/C=C/c2ccc(Sc3ccccc3C(C)C)c([N+](=O)[O-])c2)CC1` [Example 50, (2-iso-Propylphenyl)[2-nitro-4-(E-((4-acetylpiperazin-1-yl)carbonyl)ethenyl)phenyl]sulfide], in test [1], the inhibition at 0.6 µM came to 100%. In test [2] (setting [5]), this compound came in with an IC50 of 10 nM.

In test [1], `CCN(CC)C(=O)N1CCN(C(=O)/C=C/c2ccc(Sc3ccc(Cl)cc3Cl)c([N+](=O)[O-])c2)CC1` [Example 41, (2,4-Dichlorophenyl)[2-nitro-4-(E-((4-(diethylaminocarbonyl)piperazin-1-yl)carbonyl)ethenyl)phenyl]sulfide] gave an inhibition at 0.6 µM of 100%. The compound also yielded an IC50 in test [2] (setting [5]) of 110 nM. In addition, the inhibition at 4 µM in test [3] was found to be 83%.

Take `O=C(/C=C/c1ccc(Sc2ccccc2Br)c(Cl)c1)N1CCOCC1` [Example 12]: in test [1], the “% inhibition @ 0.6 μM” value is reported as 100%. In addition, in test [2] (setting [4]), the IC50 was determined as 360 nM. The “% inhibition @ 4 μM” value in test [3] stood at 90%.

Turning to `O=C(/C=C/c1ccc(Sc2ccccc2/C=C/C(=O)N2CCOCC2)c(Cl)c1)N1CCOCC1` [Example 59, (2-(E-((1-Morpholinyl)carbonyl)ethenyl)phenyl)[2-chloro-4-(E-((1-morpholinyl)carbonyl)ethenyl)phenyl]sulfide], the “% inhibition @ 0.6 μM” value in test [1] came to 100%. The IC50 in test [2] (setting [4]) was 200 nM.

As for `O=C(/C=C/c1ccc(Sc2ccccc2NCCCN2CCOCC2)c(Cl)c1)N1CCOCC1` [Example 62, (2-((3-(1-Morpholinyl)propyl)-1-amino)phenyl)[2-chloro-4-(E-((1-morpholinyl)carbonyl)ethenyl)phenyl]sulfide], in test [1], the “% inhibition @ 0.6 μM” value was 100%. This compound also registered an IC50 in test [2] (setting [4]) of 340 nM.

The compound `O=C(/C=C/c1ccc(Sc2ccc(Cl)cc2Cl)c(Br)c1)NCCCN1CCCC1=O` [Example 63, (2,4-Dichlorophenyl)[2-bromo-4-(E-((3-(2-oxopyrrolidin-1-yl)propylamino)carbonyl)ethenyl)phenyl]sulfide] came in with an IC50 in test [2] (setting [5]) of 850 nM. Also, in test [3], the inhibition at 4 µM is 82%.

Regarding `CC(=O)N1CCN(C(=O)/C=C/c2ccc(Sc3ccc(Cl)cc3Cl)c([N+](=O)[O-])c2)CC1` [Example 32, (2,4-Dichlorophenyl)[2-nitro-4-(E-((4-acetylpiperazin-1-yl)carbonyl)ethenyl)phenyl]sulfide], the inhibition at 0.6 µM in test [1] was found to be 100%. The inhibition at 4 µM in test [3] is 92%.

`CC(=O)N1CCN(C(=O)/C=C/c2ccc(Sc3c(Cl)cccc3C=O)c(Cl)c2)CC1` [Example 65, (2-Chloro-6-formylphenyl)[2-chloro-4-(E-((4-acetylpiperazin-1-yl)carbonyl)ethenyl)phenyl]sulfide] displayed an IC50 in test [2] (setting [5]) of 1200 nM. For the same compound, the inhibition at 4 µM in test [3] amounted to 86%.

For `CC(=O)N1CCN(C(=O)/C=C/c2ccc(Sc3ccc(C)cc3)c([N+](=O)[O-])c2)CC1` [Example 36, (4-Methylphenyl)[2-nitro-4-(E-((4-acetylpiperazin-1-yl)carbonyl)ethenyl)phenyl]sulfide], in test [2] (setting [5]), inhibition was half-maximal at 320 nM (IC50). In test [3], the inhibition at 4 µM was 90%.

In test [2] (setting [4]), `O=C(/C=C/c1ccc(Sc2ccc(Cl)cc2Cl)c(Cl)c1)N1CCN(CCOCCO)CC1` [Example 14] returned a half-maximal inhibitory concentration (IC50) of 790 nM. The “% inhibition @ 4 μM” value in test [3] was 82%.

Compound `CC(=O)N1CCN(C(=O)/C=C/c2ccc(Sc3ccccc3N)c([N+](=O)[O-])c2)CC1` [Example 47, (2-Aminophenyl)[2-nitro-4-(E-((4-acetylpiperazin-1-yl)carbonyl)ethenyl)phenyl]sulfide] yielded an IC50 in test [2] (setting [5]) of 370 nM. Further, the inhibition at 4 µM in test [3] was found to be 82%.
